The record followed here is patent US10570184B2, “GLP-1/glucagon receptor co-agonists for medical use” (Novo Nordisk A/S, priority 2014, dated 2020).

This assay concerns the target T1, human GLP-1 receptor (Homo sapiens, UniProt P43220).
T1 construct: expressed in transfected cells; host or cells: membranes of BHK cells (parent BHKTS13), clone FCW467-12A
As to the kind of experiment: Assay (II)(a) GLP-1 receptor binding, 125I-GLP-1 displacement SPA on BHK membranes. The settings on record: without presence of serum albumin; read-out: GLP-1R IC50 (nM) [Assay (II)(a)]. Summed up:
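Membranes from BHK cells (clone FCW467-12A) stably expressing human GLP-1R were incubated with serially diluted compounds (8×10EE-13 to 8×10EE-7 M before addition) and [125I]-GLP-1-(7-36)NH2 with WGA SPA beads, 2 h at 30° C, pH 7.4. IC50 taken from displacement by non-linear regression. Run at ≤0.001% or 2.0% final serum albumin.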

Starred links: 1 amine or outer side, 2 acyl side, 3 side chain; linkers in the order of their positions; H or OH if unused. Non-standard residues stand in square brackets, D forms with d. Residues, ends and D or L forms follow the SMILES beside them. Groups on a side chain read outwards from the residue. *: point of attachment. C18 diacid = O=C(O)CCCCCCCCCCCCCCCCC(=O)*; γGlu = O=C(O)[C@H](CCC(=O)[*:2])N[*:1]; Ac4c = NC1(C(=O)O)CCC1; AEEA = NCCOCCOCC(=O)O; Aib = CC(C)(N)C(=O)O

T1 sequence (P43220 24-463): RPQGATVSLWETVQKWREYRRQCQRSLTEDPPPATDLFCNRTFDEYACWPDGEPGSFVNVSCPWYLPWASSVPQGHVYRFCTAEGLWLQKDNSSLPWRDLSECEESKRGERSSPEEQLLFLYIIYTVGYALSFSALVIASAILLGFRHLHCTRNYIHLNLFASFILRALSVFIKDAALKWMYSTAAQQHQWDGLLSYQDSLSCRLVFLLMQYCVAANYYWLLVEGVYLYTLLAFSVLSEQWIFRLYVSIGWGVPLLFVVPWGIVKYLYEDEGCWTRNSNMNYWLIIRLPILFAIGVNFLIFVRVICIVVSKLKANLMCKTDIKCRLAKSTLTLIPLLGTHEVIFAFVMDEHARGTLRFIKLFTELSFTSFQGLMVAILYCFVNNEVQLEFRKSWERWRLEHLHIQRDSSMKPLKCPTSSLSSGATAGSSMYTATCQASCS

Take `CC[C@H](C)[C@H](NC(=O)[C@H](CC(C)C)NC(=O)[C@H](Cc1c[nH]c2ccccc12)NC(=O)[C@H](CCC(N)=O)NC(=O)[C@@H](NC(=O)[C@H](Cc1ccccc1)NC(=O)[C@H](CC(=O)O)NC(=O)[C@H](CCCNC(=N)N)NC(=O)[C@H](C)NC(=O)[C@H](CCCNC(=N)N)NC(=O)[C@H](CCCNC(=N)N)NC(=O)[C@H](CO)NC(=O)[C@H](CCC(=O)O)NC(=O)[C@H](CC(C)C)NC(=O)[C@H](Cc1ccc(O)cc1)NC(=O)[C@H](CCCNC(=N)N)NC(=O)[C@H](CO)NC(=O)[C@H](Cc1ccc(O)cc1)NC(=O)[C@H](CC(=O)O)NC(=O)[C@H](CO)NC(=O)[C@@H](NC(=O)[C@H](Cc1ccccc1)NC(=O)[C@@H](NC(=O)CNC(=O)[C@H](CCC(N)=O)NC(=O)C1(NC(=O)[C@@H](N)Cc2c[nH]cn2)CCC1)[C@@H](C)O)[C@@H](C)O)C(C)C)C(=O)N[C@@H](CCCCNC(=O)CC[C@H](NC(=O)COCCOCCNC(=O)CC[C@H](NC(=O)COCCOCCNC(=O)CC[C@H](NC(=O)COCCOCCNC(=O)CC[C@H](NC(=O)CC[C@H](NC(=O)CCCCCCCCCCCCCCCCC(=O)O)C(=O)O)C(=O)O)C(=O)O)C(=O)O)C(=O)O)C(=O)N[C@H](C(N)=O)[C@@H](C)O` [Chem. 36, N^ε28-[(4S)-4-carboxy-4-[[2-[2-[2-[[(4S)-4-carboxy-4-[[2-[2-[2-[[(4S)-4-carboxy-4-[[2-[2-[2-[[(4S)-4-carboxy-4-[[(4S)-4-carboxy-4-(17-carboxyheptadecanoylamino)butanoyl]amino]butanoyl]amino]ethoxy]ethoxy]acetyl]amino]butanoyl]amino]ethoxy]ethoxy]acetyl]amino]butanoyl]amino]ethoxy]ethoxy]acetyl]amino]butanoyl]-[Acb2,Arg12,Glu15,Arg20,Ile27,Lys28]-Glucagon amide] (H-H[Ac4c]QGTFTSDYSRYLESRRARDFVQWLIK([γGlu-AEEA-γGlu-AEEA-γGlu-AEEA-γGlu-γGlu-C18 diacid])T-NH2; N-terminus assumed): the IC50 came out at 1.5 nM.
As for `CC[C@H](C)[C@H](NC(=O)[C@H](CC(C)C)NC(=O)[C@H](Cc1c[nH]c2ccccc12)NC(=O)[C@H](CCC(N)=O)NC(=O)[C@@H](NC(=O)[C@H](Cc1ccccc1)NC(=O)[C@H](CC(=O)O)NC(=O)[C@H](CCCNC(=N)N)NC(=O)[C@H](C)NC(=O)[C@H](CCCNC(=N)N)NC(=O)[C@H](CCCNC(=N)N)NC(=O)[C@H](CO)NC(=O)[C@H](CCC(=O)O)NC(=O)[C@H](CC(C)C)NC(=O)[C@H](Cc1ccc(O)cc1)NC(=O)[C@H](CCCNC(=N)N)NC(=O)[C@H](CO)NC(=O)[C@H](Cc1ccc(O)cc1)NC(=O)[C@H](CC(=O)O)NC(=O)[C@H](CO)NC(=O)[C@@H](NC(=O)[C@H](Cc1ccccc1)NC(=O)[C@@H](NC(=O)CNC(=O)[C@H](CCC(N)=O)NC(=O)C(C)(C)NC(=O)[C@@H](N)Cc1c[nH]cn1)[C@@H](C)O)[C@@H](C)O)C(C)C)C(=O)N[C@@H](CCCCNC(=O)CC[C@H](NC(=O)COCCOCCNC(=O)CC[C@H](NC(=O)COCCOCCNC(=O)CC[C@H](NC(=O)COCCOCCNC(=O)CC[C@H](NC(=O)CC[C@H](NC(=O)CCCCCCCCCCCCCCCCC(=O)O)C(=O)O)C(=O)O)C(=O)O)C(=O)O)C(=O)O)C(=O)N[C@H](C(N)=O)[C@@H](C)O` [Chem. 37, N^28-[(4S)-4-carboxy-4-[[2-[2-[2-[[(4S)-4-carboxy-4-[[2-[2-[2-[[(4S)-4-carboxy-4-[[2-[2-[2-[[(4S)-4-carboxy-4-[[(4S)-4-carboxy-4-(17-carboxyheptadecanoylamino)butanoyl]amino]butanoyl]amino]ethoxy]ethoxy]acetyl]amino]butanoyl]amino]ethoxy]ethoxy]acetyl]amino]butanoyl]amino]ethoxy]ethoxy]acetyl]amino]butanoyl]-[Aib2,Arg12,Glu15,Arg20,Ile27,Lys28]-Glucagon amide] (H-H[Aib]QGTFTSDYSRYLESRRARDFVQWLIK([γGlu-AEEA-γGlu-AEEA-γGlu-AEEA-γGlu-γGlu-C18 diacid])T-NH2; N-terminus assumed), the IC50 was determined as 1.5 nM.
The result for `CC[C@H](C)[C@H](NC(=O)[C@H](CC(C)C)NC(=O)[C@H](Cc1c[nH]c2ccccc12)NC(=O)[C@H](CCC(N)=O)NC(=O)[C@@H](NC(=O)[C@H](Cc1ccccc1)NC(=O)[C@H](CCC(=O)O)NC(=O)[C@H](CCC(N)=O)NC(=O)[C@H](C)NC(=O)[C@H](CCCNC(=N)N)NC(=O)[C@H](CCCNC(=N)N)NC(=O)[C@H](CO)NC(=O)[C@H](CCC(=O)O)NC(=O)[C@H](CC(C)C)NC(=O)[C@H](Cc1ccc(O)cc1)NC(=O)[C@H](CCCCN)NC(=O)[C@H](CO)NC(=O)[C@H](CC(C)C)NC(=O)[C@H](CC(=O)O)NC(=O)[C@H](CO)NC(=O)[C@@H](NC(=O)[C@H](Cc1ccccc1)NC(=O)[C@@H](NC(=O)CNC(=O)[C@H](CCC(N)=O)NC(=O)C1(NC(=O)[C@@H](N)Cc2c[nH]cn2)CCC1)[C@@H](C)O)[C@@H](C)O)C(C)C)C(=O)N[C@@H](CCCCNC(=O)CC[C@H](NC(=O)COCCOCCNC(=O)COCCOCCNC(=O)CC[C@H](NC(=O)CC[C@H](NC(=O)CCCCCCCCCCCCCCCCC(=O)O)C(=O)O)C(=O)O)C(=O)O)C(=O)N[C@H](C(N)=O)[C@@H](C)O` [Chem. 38, N^ε28-[(4S)-4-carboxy-4-[[2-[2-[2-[[2-[2-[2-[[(4S)-4-carboxy-4-[[(4S)-4-carboxy-4-(17-carboxyheptadecanoylamino)butanoyl]amino]butanoyl]amino]ethoxy]ethoxy]acetyl]amino]ethoxy]ethoxy]acetyl]amino]butanoyl]-[Acb2,Leu10,Glu15,Glu21,Ile27,Lys28]-Glucagon amide] (H-H[Ac4c]QGTFTSDLSKYLESRRAQEFVQWLIK([γGlu-AEEA-AEEA-γGlu-γGlu-C18 diacid])T-NH2; N-terminus assumed) reads 0.3 nM.

One may read the IC50 as the point on the concentration scale where inhibition reaches its midpoint.
